Reference: ChEMBL document CHEMBL1153992, “2-Azidoalkoxy-7-hydro-8-oxoadenine derivatives as TLR7 agonists inducing dendritic cell maturation” (Bioorg Med Chem Lett, 2009)
Calls of active or inactive are those of the source. The calls are words filed in the database; no cut-off is given here.

Columns and labels:
Type in all cases: cell-based
[1] = biological target: T1, Toll-like receptor 7 (Mus musculus) (UniProt P58681); assay: Induction of TLR7 receptor-mediated C57BL/6 mouse BMD cells activation assessed as upregulation of CD86 at 1 uM after 48 hrs by flow cytometry
T1 sequence (whole entry): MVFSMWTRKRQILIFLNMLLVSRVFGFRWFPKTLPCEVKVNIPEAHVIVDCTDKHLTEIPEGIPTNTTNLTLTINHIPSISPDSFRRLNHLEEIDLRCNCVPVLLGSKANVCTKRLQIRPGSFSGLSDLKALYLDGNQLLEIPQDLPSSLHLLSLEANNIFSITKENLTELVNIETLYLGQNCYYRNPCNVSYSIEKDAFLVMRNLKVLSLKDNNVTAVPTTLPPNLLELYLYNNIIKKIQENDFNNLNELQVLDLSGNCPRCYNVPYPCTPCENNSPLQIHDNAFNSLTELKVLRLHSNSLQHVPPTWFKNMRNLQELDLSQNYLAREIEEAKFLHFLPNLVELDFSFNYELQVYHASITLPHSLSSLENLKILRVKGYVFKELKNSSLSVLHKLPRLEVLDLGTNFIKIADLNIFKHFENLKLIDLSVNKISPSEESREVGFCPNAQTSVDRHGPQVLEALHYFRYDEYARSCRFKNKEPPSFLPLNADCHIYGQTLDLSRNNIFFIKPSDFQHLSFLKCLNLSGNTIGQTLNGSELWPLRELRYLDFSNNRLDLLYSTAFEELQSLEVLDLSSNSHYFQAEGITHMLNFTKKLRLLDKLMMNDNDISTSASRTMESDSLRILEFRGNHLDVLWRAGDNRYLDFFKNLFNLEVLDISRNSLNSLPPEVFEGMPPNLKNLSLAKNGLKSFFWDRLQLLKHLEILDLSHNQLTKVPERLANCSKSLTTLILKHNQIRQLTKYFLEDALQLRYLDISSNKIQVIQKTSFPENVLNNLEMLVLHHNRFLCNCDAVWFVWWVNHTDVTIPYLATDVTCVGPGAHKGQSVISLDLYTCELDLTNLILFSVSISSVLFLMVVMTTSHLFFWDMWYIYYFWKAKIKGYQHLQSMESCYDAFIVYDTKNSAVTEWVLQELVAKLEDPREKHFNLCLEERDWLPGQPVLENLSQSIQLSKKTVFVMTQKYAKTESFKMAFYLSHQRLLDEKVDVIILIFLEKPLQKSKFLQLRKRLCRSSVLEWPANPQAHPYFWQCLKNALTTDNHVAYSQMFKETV

[2] = biological target: T1, Toll-like receptor 7 (Mus musculus); assay: Induction of TLR7 receptor-mediated C57BL/6 mouse BMD cells activation assessed as upregulation of MHC class-2 at 1 uM after 48 hrs by flow cytometry
[3] = biological target: T1, Toll-like receptor 7 (Mus musculus); assay: Induction of TLR7 receptor-mediated C57BL/6 mouse BMD cells activation assessed as upregulation of CD40 at 1 uM after 48 hrs by flow cytometry
[4] = biological target: T1, Toll-like receptor 7 (Mus musculus); assay: Induction of TLR7 receptor-mediated C57BL/6 mouse BMD cells activation assessed as IL12 production at 5 uM after 24 hrs by ELISA
[5] = biological target: T1, Toll-like receptor 7 (Mus musculus); assay: Induction of TLR7 receptor-mediated C57BL/6 mouse BMD cells activation assessed as IL12 production at 0.1 uM after 24 hrs by ELISA
[6] = biological target: T1, Toll-like receptor 7 (Mus musculus); assay: Induction of TLR7 receptor-mediated C57BL/6 mouse BMD cells activation assessed as IL12 production at 10 nM after 24 hrs by ELISA

## CCOCc1nc2c(N)nc3ccccc3c2n1CC(C)(C)O
[1]
  Activity: Active
[2]
  Activity: Active
[3]
  Activity: Active
[4]
  Activity: Active

## [N-]=[N+]=NCCOCCOc1nc(N)c2[nH]c(=O)n(Cc3ccccc3)c2n1
[1]
  Activity: Active
[2]
  Activity: Active
[3]
  Activity: Active
[4]
  Activity: Active

## [N-]=[N+]=NCCCCCOc1nc(N)c2[nH]c(=O)n(Cc3ccccc3)c2n1
[1]
  Activity: Active
[2]
  Activity: Active
[3]
  Activity: Active
[4]
  Activity: Active

## COCCOc1nc(N)c2[nH]c(=O)n(Cc3ccccc3)c2n1
[1]
  Activity: Active
[2]
  Activity: Active
[3]
  Activity: Active
[4]
  Activity: Active

## [N-]=[N+]=NCCCOc1nc(N)c2[nH]c(=O)n(Cc3ccccc3)c2n1
[1]
  Activity: Active
[2]
  Activity: Active
[3]
  Activity: Active
[4]
  Activity: Active
[5]
  Activity: Active

## [N-]=[N+]=NCCCCCCOc1nc(N)c2[nH]c(=O)n(Cc3ccccc3)c2n1
[1]
  Activity: Active
[2]
  Activity: Active
[3]
  Activity: Active
[4]
  Activity: Active

## CCCCOc1nc(N)c2[nH]c(=O)n(Cc3ccccc3)c2n1
[1]
  Activity: Active
[2]
  Activity: Active
[3]
  Activity: Active
[4]
  Activity: Active
[6]
  Activity: Active

## [N-]=[N+]=NCCOCCOCCOc1nc(N)c2[nH]c(=O)n(Cc3ccccc3)c2n1
[1]
  Activity: inactive
[2]
  Activity: inactive
[3]
  Activity: inactive

## [N-]=[N+]=NCCCCOc1nc(N)c2[nH]c(=O)n(Cc3ccccc3)c2n1
[1]
  Activity: Active
[2]
  Activity: Active
[3]
  Activity: Active
[4]
  Activity: Active

## [N-]=[N+]=NCCOc1nc(N)c2[nH]c(=O)n(Cc3ccccc3)c2n1
[1]
  Activity: Active
[2]
  Activity: Active
[3]
  Activity: Active
[4]
  Activity: Active
[5]
  Activity: Active
